Measured values published in PMC6389993, “Quercetin and its metabolite isorhamnetin promote glucose uptake through different signalling pathways in myotubes” (Scientific Reports, 2019).

Key:
Type in all cases: cell-based, rat
GLUT4 [1] = test: GLUT4 translocation to the plasma membrane in L6 myotubes (western blot); conditions: for GLUT4 translocation to the plasma membrane / expression level of GLUT4: 15 min; for expression level of GLUT4: 0.1–10 nM
Description: (§1) In vitro cultured cell experiments were conducted according to a previously described protocol[6],[14]. Briefly, L6 myoblasts derived from rat skeletal muscle and of less than 40 passages were maintained in MEM supplemented with 10% foetal bovine serum (FBS) and antibiotics (100 U/ml penicillin and 100 μg/ml streptomycin) at 37 °C under a humidified atmosphere condition of 5% CO2 and 95% air. In each experiment, cells (2.2 × 10^4 cells/ml) were seeded into 96-well plates or 60-mm dishes for induction of differentiation into mature myotubes. After reaching confluence, cells were supplemented with differentiation medium containing 2% FBS and the same antibiotics for 7 days. Cells were used for each experiment after morphological analysis of differentiation status using phase-contrast microscopy. To explore the contribution of CaMKKβ or intracellular-free calcium ions in quercetin- and isorhamnetin-stimulated GLUT4 translocation, L6 cells were incubated in the presence or absence of 10 μM STO-609 and 25 μM […], respectively, for 30 min prior to treatment with either quercetin or isorhamnetin.
(§2) For in vitro cell culture experiments, after serum starvation for 18 h, myotubes were treated with various concentrations of quercetin or isorhamnetin (0.1–10 nM) for 15 min; DMSO (final 0.1%) was used as a vehicle control. As positive controls, 100 nM insulin, 1 mM AICAR, 10 nM leptin, or 100 ng/mL IL-15 were used for insulin, AMPK, JAK2/STAT, or JAK3/STAT signalling pathways, respectively. Cells were treated with insulin or AICAR for 15 min, leptin for 60 min, or IL-15 for 24 h. Whole protein and plasma membrane fractions were prepared from myotubes, as previously described. For in vivo experiment, plasma membrane fraction and tissue lysate of soleus muscle were prepared.
(§3) Translocation of GLUT4 to the plasma membrane, as well as expression and phosphorylation levels of GLUT4-related regulators were estimated by western blot analysis. Briefly, equal amounts of proteins were separated by sodium dodecyl sulfate-polyacrylamide gel electrophoresis (SDS-PAGE). Separated proteins were transferred onto a polyvinylidene fluoride membrane and nonspecific binding sites were blocked using either Blocking One (to detect unphosphorylated proteins) or Blocking One-P (to detect phosphoproteins). The membrane was incubated overnight with an appropriate primary antibody for GLUT4 (1:5000), IR (1:10000), p-IRS1 (1:5000), IRS1 (1:5000), p-PI3K (1:5000), PI3K (1:10000), p-Akt (1:5000), Akt (1:10000), p-AMPKα (1:5000), AMPKα (1:10000), p-ACC (1:5000), ACC (1:10000), p-LKB1 (1:5000), LKB1 (1:10000), p-JAK2 (1:5000), JAK2 (1:5000), p-JAK3 (1:5000), JAK3 (1:10000), p-STAT1 (1:5000), STAT1 (1:10000), p-STAT3 (1:5000), STAT3 (1:10000), p-STAT5 (1:5000), STAT5 (1:10000), or β-actin (1:20000), and subsequently treated with the corresponding horseradish peroxidase-conjugated secondary antibody (1:50000) for 1 h. Specific immune complexes were developed using ImmunoStar® LD and detected with an ATTO Light-Capture II Western Blotting Detection System. Individual band density was calculated by ImageJ and normalized to the control.

Akt = test: Phosphorylation of Akt in L6 myotubes (western blot); conditions: 15 min; for Akt phosphorylation at Ser473: higher concentrations (1 μM and 10 μM)
Description: as §2, §3
(§4) 42 after morphological analysis of differentiation status using phase-contrast microscopy.
(§5) 43 Preparation of whole protein and plasma membrane fractions After serum starvation
(§6) 44 for 18 h, myotubes were treated with various concentrations of quercetin or isorhamnetin (1–
45 10 μM) for 15 min; DMSO (final 0.1%) was used as a vehicle control. As positive controls,
46 100 nM insulin, 1 mM AICAR, or 10 nM leptin were used for insulin, AMPK or JAK2/STAT
47 signalling pathways, respectively. Cells were treated with insulin or AICAR for 15 min, or
48 leptin for 60 min. […]
(§7) 59 complexes were developed using ImmunoStar® LD and detected with an ATTO Light-Capture
(§8) 60 Ⅱ Western Blotting Detection System. Individual band density was calculated by ImageJ and […]

AMPK = test: Phosphorylation of AMPK in L6 myotubes (western blot); conditions: 15 min
Description: as §1, §2, §3, §4, §5, §6
45 10 μM) for 15 min; DMSO (final 0.1%) was used as a vehicle control. As positive controls, […]

LKB1 = test: Phosphorylation of LKB1 in L6 myotubes (western blot); conditions: 0.1–10 nM, 15 min
Description: as §2
(§9) Translocation of GLUT4 to the plasma membrane, as well as expression and phosphorylation levels of GLUT4-related regulators were estimated by western blot analysis. Briefly, equal amounts of proteins were separated by sodium dodecyl sulfate-polyacrylamide gel electrophoresis (SDS-PAGE). […] Specific immune complexes were developed using ImmunoStar® LD and detected with an ATTO Light-Capture II Western Blotting Detection System. Individual band density was calculated by ImageJ and normalized to the control.

JAK2 = test: Phosphorylation of JAK2 in L6 myotubes (western blot); conditions: 15 min; for phosphorylation of JAK2: higher concentrations (1 μM and 10 μM)
Description: as §2
as §9, with “(SDS-PAGE). Separated proteins were transferred onto a polyvinylidene fluoride membrane and nonspecific binding sites were blocked using either Blocking One (to detect unphosphorylated proteins) or Blocking One-P (to detect phosphoproteins).” for “(SDS-PAGE).”, “control. […]” for “control.”
as §7, §8

PI3K = test: Phosphorylation of PI3K in L6 myotubes (western blot); conditions: 15 min
Description: as §2, §9

GLUT4 [2] = test: GLUT4 translocation in L6 myotubes after siRNA knockdown of AMPKα, JAK2 or JAK3; conditions: for compound-induced GLUT4 translocation after siRNA for AMPK: siAMPKα 50 nM 48 h, 1 mM AICAR; for compound-induced GLUT4 translocation after siRNA for AMPK / compound-induced GLUT4 translocation after siRNA for JAK2: 1 nM quercetin or isorhamnetin; for compound-induced GLUT4 translocation after siRNA for JAK2: siJAK2 50 nM 48 h, 10 nM leptin
Description: as §2, §3
Mature myotubes were cultured in antibiotic-free medium and transfected with siRNA at a final concentration of 50 nM using Lipofectamine RNAiMAX transfection reagent according to the manufacturer’s instructions. In brief, mature myotubes were transfected with siRNA in Opti-MEM for 48 h. Subsequently, the medium was changed to fresh Opti-MEM and cells were treated with the indicated concentrations of quercetin or isorhamnetin.

IR = test: Phosphorylation of insulin receptor in L6 myotubes (immunoprecipitation, western blot); conditions: 0.1–10 nM, 15 min, all concentrations tested
Description: as §2
as §9, with “control. […]” for “control.”

[3] = higher concentrations (1 μM and 10 μM)

Row | Structure (SMILES) | GLUT4 translocation to the plasma membrane (GLUT4 [1]; 1 nM) | GLUT4 translocation to the plasma membrane (GLUT4 [1]; 10 nM) | expression level of GLUT4 (GLUT4 [1]) | Akt phosphorylation (Akt; 0.1–10 nM) | Akt phosphorylation at Ser473 (Akt) | AMPK phosphorylation (AMPK; [3]) | LKB1 phosphorylation (LKB1) | phosphorylation of JAK2 (JAK2) | JAK2 phosphorylation (JAK2; physiological concentration range (0.1–10 nM)) | phosphorylation of PI3K (PI3K; 0.1 nM) | compound-induced GLUT4 translocation after siRNA for AMPK (GLUT4 [2]) | compound-induced GLUT4 translocation after siRNA for JAK2 (GLUT4 [2]) | compound-induced GLUT4 translocation after siRNA for JAK3 (GLUT4 [2]; siJAK3 50 nM 48 h, 1 nM isorhamnetin, not significant) | phosphorylation of insulin receptors (IRs) (IR) | GLUT4 translocation to the plasma membrane (GLUT4 [1]; 0.1 nM) | time-dependent changes in GLUT4 translocation (GLUT4 [1]; 1 nM, monitored 0–240 min) | Akt phosphorylation at Thr308 and Ser473 (Akt; 10 nM) | AMPK phosphorylation (AMPK; 0.1 nM and 1 nM) | phosphorylation of PI3K (PI3K; 0.1–10 nM)
1 | COc1cc(-c2oc3cc(O)cc(O)c3c(=O)c2O)ccc1O [isorhamnetin, 3′-O-methyl quercetin] | significantly increased GLUT4 translocation | significantly increased GLUT4 translocation | remained unchanged | did not affect Akt phosphorylation | significantly increased Akt phosphorylation | induced phosphorylation of AMPK | neither quercetin nor isorhamnetin increased LKB1 phosphorylation | induced phosphorylation of JAK2 | effectively promoted | increased PI3K phosphorylation | failed to suppress | abolished | slightly decreased | failed to activate | – | – | – | – | –
2 | O=c1c(O)c(-c2ccc(O)c(O)c2)oc2cc(O)cc(O)c12 [quercetin, 3,3′,4′,5,7-pentahydroxy flavone] | significantly increased GLUT4 translocation | significantly increased GLUT4 translocation | remained unchanged | – | significantly increased Akt phosphorylation | induced phosphorylation of AMPK | neither quercetin nor isorhamnetin increased LKB1 phosphorylation | induced phosphorylation of JAK2 | – | – | almost completely abolished | without affecting | – | failed to activate | significantly increased GLUT4 translocation | bell-shaped curve | increased Akt phosphorylation | promoted AMPK phosphorylation | significantly increased phosphorylation of PI3K
